# Measured values taken from patent US8445501B2, “Substituted 7-carboxamido-pyrrolo[3,2-d]pyrimidines” (Takeda GmbH, priority 2008, dated 2013).
# Target: T1, human PDE5 (Homo sapiens, UniProt O76074)
# T1 construct: from tissue; host or cells: platelets from fresh blood of human donors (lysate, 10,000 g supernatant)
# Assay: Inhibition of the type 5 phosphodiesterase (PDE5) activity, modified SPA test with platelet lysate
# Type: biochemical
# Details: PDE5 from human platelet lysate, 0.5 μM cGMP
# Procedure, shortened: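 SPA-based cGMP hydrolysis, [3H]cGMP tracer in 0.5 μM cGMP, by sonicated human platelet lysate; motapizone (1 μM) and a PDE2 inhibitor (10 nM) block other PDEs. Reaction 15 min at 37 °C after 5 min preincubation, quenched with beads containing IBMX. IC50 from concentration-effect curves.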
row,Structure (SMILES),IC50
1,"COc1ccc(-c2ncnc3c(C(=O)N[C@H]4CC[C@@H](NC(C)=O)CC4)c[nH]c23)c(OCC2CC2)c1 [Example 55, cis-4-(2-Cyclopropylmethoxy-4-methoxy-phenyl)-5H-pyrrolo[3,2-d]pyrimidine-7-carboxylic acid (4-acetylamino-cyclohexyl)-amide]",0.372 nM
2,"COc1ccc(-c2ncnc3c(C(=O)N[C@H]4CC[C@@H](NC(=O)C5CC5)CC4)c[nH]c23)c(OCC2CC2)c1 [Example 56, cis-4-(2-Cyclopropylmethoxy-4-methoxy-phenyl)-5H-pyrrolo[3,2-d]pyrimidine-7-carboxylic acid [4-(cyclopropanecarbonyl-amino)cyclohexyl]-amide]",0.282 nM
3,"COCC(=O)N[C@H]1CC[C@@H](NC(=O)c2c[nH]c3c(-c4ccc(OC)cc4OCC4CC4)ncnc23)CC1 [Example 57, cis-4-(2-Cyclopropylmethoxy-4-methoxy-phenyl)-5H-pyrrolo[3,2-d]pyrimidine-7-carboxylic acid [4-(2-methoxy-acetylamino)-cyclohexyl]-amide]",0.468 nM
4,"CCOC(=O)N[C@H]1CC[C@@H](NC(=O)c2c[nH]c3c(-c4ccc(OC)cc4OCC4CC4)ncnc23)CC1 [Example 58, cis-(4-{[4-(2-Cyclopropylmethoxy-4-methoxy-phenyl)-5H-pyrrolo[3,2-d]pyrimidine-7-carbonyl]-amino}-cyclohexyl)-carbamic acid ethyl ester]",0.339 nM
5,"COc1ccc(-c2ncnc3c(C(=O)NC4CCN(C(C)=O)CC4)c[nH]c23)c(OCC2CC2)c1 [Example 59, 4-(2-Cyclopropylmethoxy-4-methoxy-phenyl)-5H-pyrrolo[3,2-d]pyrimidine-7-carboxylic acid (1-acetyl-piperidin-4-yl)-amide]",0.741 nM
6,"COc1ccc(-c2ncnc3c(C(=O)NC4CCN(C(=O)C5CC5)CC4)c[nH]c23)c(OCC2CC2)c1 [Example 60, 4-(2-Cyclopropylmethoxy-4-methoxy-phenyl)-5H-pyrrolo[3,2-d]pyrimidine-7-carboxylic acid [1-(1-cyclopropyl-methanoyl)-piperidin-4-yl]-amide]",0.263 nM
7,"COCC(=O)N1CCC(NC(=O)c2c[nH]c3c(-c4ccc(OC)cc4OCC4CC4)ncnc23)CC1 [Example 61, 4-(2-Cyclopropylmethoxy-4-methoxy-phenyl)-5H-pyrrolo[3,2-d]pyrimidine-7-carboxylic acid [1-(2-methoxy-ethanoyl)-piperidin-4-yl]amide]",0.525 nM
8,"CCOC(=O)N1CCC(NC(=O)c2c[nH]c3c(-c4ccc(OC)cc4OCC4CC4)ncnc23)CC1 [Example 62, 4-({1-[4-(2-Cyclopropylmethoxy-4-methoxy-phenyl)-5H-pyrrolo[3,2-d]pyrimidin-7-yl]-methanoyl}-amino)-piperidine-1-carboxylic acid ethyl ester]",0.309 nM
9,"COc1ccc(OCC2CC2)c(-c2ncnc3c(C(=O)N[C@H]4CC[C@H](NC(C)=O)CC4)c[nH]c23)c1 [Example 63, trans-4-(2-Cyclopropylmethoxy-5-methoxy-phenyl)-5H-pyrrolo[3,2-d]pyrimidine-7-carboxylic acid (4-acetylamino-cyclohexyl)-amide]",0.912 nM
10,"COc1ccc(OCC2CC2)c(-c2ncnc3c(C(=O)N[C@H]4CC[C@H](NC(=O)C5CC5)CC4)c[nH]c23)c1 [Example 64, trans-4-(2-Cyclopropylmethoxy-5-methoxy-phenyl)-5H-pyrrolo[3,2-d]pyrimidine-7-carboxylic acid [4-(cyclopropanecarbonyl-amino)cyclohexyl]-amide]",0.603 nM
11,"COCC(=O)N[C@H]1CC[C@H](NC(=O)c2c[nH]c3c(-c4cc(OC)ccc4OCC4CC4)ncnc23)CC1 [Example 65, trans-4-(2-Cyclopropylmethoxy-5-methoxy-phenyl)-5H-pyrrolo[3,2-d]pyrimidine-7-carboxylic acid [4-(2-methoxy-acetylamino)-cyclohexyl]-amide]",1.15 nM
12,"CCOC(=O)N[C@H]1CC[C@H](NC(=O)c2c[nH]c3c(-c4cc(OC)ccc4OCC4CC4)ncnc23)CC1 [Example 66, trans-(4-{[4-(2-Cyclopropylmethoxy-5-methoxy-phenyl)-5H-pyrrolo[3,2-d]pyrimidine-7-carbonyl]-amino}-cyclohexyl)-carbamic acid ethyl ester]",0.631 nM
13,"COc1ccc(OCC2CC2)c(-c2ncnc3c(C(=O)N[C@H]4CC[C@@H](NC(C)=O)CC4)c[nH]c23)c1 [Example 67, cis-4-(2-Cyclopropylmethoxy-5-methoxy-phenyl)-5H-pyrrolo[3,2-d]pyrimidine-7-carboxylic acid (4-acetylamino-cyclohexyl)-amide]",1.38 nM
14,"COc1ccc(OCC2CC2)c(-c2ncnc3c(C(=O)N[C@H]4CC[C@@H](NC(=O)C5CC5)CC4)c[nH]c23)c1 [Example 68, cis-4-(2-Cyclopropylmethoxy-5-methoxy-phenyl)-5H-pyrrolo[3,2-d]pyrimidine-7-carboxylic acid [4-(cyclopropanecarbonyl-amino)cyclohexyl]-amide]",0.912 nM
15,"COCC(=O)N[C@H]1CC[C@@H](NC(=O)c2c[nH]c3c(-c4cc(OC)ccc4OCC4CC4)ncnc23)CC1 [Example 69, cis-4-(2-Cyclopropylmethoxy-5-methoxy-phenyl)-5H-pyrrolo[3,2-d]pyrimidine-7-carboxylic acid [4-(2-methoxy-acetylamino)-cyclohexyl]-amide]",1.78 nM
16,"CCOC(=O)N[C@H]1CC[C@@H](NC(=O)c2c[nH]c3c(-c4cc(OC)ccc4OCC4CC4)ncnc23)CC1 [Example 70, cis-(4-{[4-(2-Cyclopropylmethoxy-5-methoxy-phenyl)-5H-pyrrolo[3,2-d]pyrimidine-7-carbonyl]-amino}-cyclohexyl)-carbamic acid ethyl ester]",1.07 nM
17,"COc1ccc(OCC2CC2)c(-c2ncnc3c(C(=O)NC4CCN(C(C)=O)CC4)c[nH]c23)c1 [Example 71, 4-(2-Cyclopropylmethoxy-5-methoxy-phenyl)-5H-pyrrolo[3,2-d]pyrimidine-7-carboxylic acid (1-acetyl-piperidin-4-yl)-amide]",1.35 nM
18,"COc1ccc(OCC2CC2)c(-c2ncnc3c(C(=O)NC4CCN(C(=O)C5CC5)CC4)c[nH]c23)c1 [Example 72, 4-(2-Cyclopropylmethoxy-5-methoxy-phenyl)-5H-pyrrolo[3,2-d]pyrimidine-7-carboxylic acid (1-cyclopropanecarbonyl-piperidin-4-yl)-amide]",0.437 nM
19,"COCC(=O)N1CCC(NC(=O)c2c[nH]c3c(-c4cc(OC)ccc4OCC4CC4)ncnc23)CC1 [Example 73, 4-(2-Cyclopropylmethoxy-5-methoxy-phenyl)-5H-pyrrolo[3,2-d]pyrimidine-7-carboxylic acid [1-(2-methoxy-acetyl)piperidin-4-yl]-amide]",1.86 nM
20,"CCOC(=O)N1CCC(NC(=O)c2c[nH]c3c(-c4cc(OC)ccc4OCC4CC4)ncnc23)CC1 [Example 74, 4-{[4-(2-Cyclopropylmethoxy-5-methoxy-phenyl)-5H-pyrrolo[3,2-d]pyrimidine-7-carbonyl]-amino}-piperidine-1-carboxylic acid ethyl ester]",0.55 nM
21,"CC(=O)N[C@H]1CC[C@@H](NC(=O)c2c[nH]c3c(-c4ccc(F)cc4OCC4CC4)ncnc23)CC1 [Example 75, cis-4-(2-Cyclopropylmethoxy-4-fluoro-phenyl)-5H-pyrrolo[3,2-d]pyrimidine-7-carboxylic acid (4-acetylamino-cyclohexyl)-amide]",1.58 nM
22,"COCC(=O)N[C@H]1CC[C@@H](NC(=O)c2c[nH]c3c(-c4ccc(F)cc4OCC4CC4)ncnc23)CC1 [Example 76, cis-4-(2-Cyclopropylmethoxy-4-fluoro-phenyl)-5H-pyrrolo[3,2-d]pyrimidine-7-carboxylic acid [4-(2-methoxy-acetylamino)-cyclohexyl]-amide]",2.4 nM
23,"CCOC(=O)N[C@H]1CC[C@@H](NC(=O)c2c[nH]c3c(-c4ccc(F)cc4OCC4CC4)ncnc23)CC1 [Example 77, cis-(4-{[4-(2-Cyclopropylmethoxy-4-fluoro-phenyl)-5H-pyrrolo[3,2-d]pyrimidine-7-carbonyl]-amino}-cyclohexyl)-carbamic acid ethyl ester]",2.14 nM
24,"CC(=O)N[C@H]1CC[C@H](NC(=O)c2c[nH]c3c(-c4ccc(F)cc4OCC4CC4)ncnc23)CC1 [Example 78, trans-4-(2-Cyclopropylmethoxy-4-fluoro-phenyl)-5H-pyrrolo[3,2-d]pyrimidine-7-carboxylic acid (4-acetylamino-cyclohexyl)-amide]",2.29 nM
25,"COCC(=O)N[C@H]1CC[C@H](NC(=O)c2c[nH]c3c(-c4ccc(F)cc4OCC4CC4)ncnc23)CC1 [Example 79, trans-4-(2-Cyclopropylmethoxy-4-fluoro-phenyl)-5H-pyrrolo[3,2-d]pyrimidine-7-carboxylic acid [4-(2-methoxy-acetylamino)-cyclohexyl]-amide]",1.55 nM
26,"CCOC(=O)N[C@H]1CC[C@H](NC(=O)c2c[nH]c3c(-c4ccc(F)cc4OCC4CC4)ncnc23)CC1 [Example 80, trans-(4-{[4-(2-Cyclopropylmethoxy-4-fluoro-phenyl)-5H-pyrrolo[3,2-d]pyrimidine-7-carbonyl]-amino}-cyclohexyl)-carbamic acid ethyl ester]",1.41 nM
27,"CC(=O)N1CCC(NC(=O)c2c[nH]c3c(-c4ccc(F)cc4OCC4CC4)ncnc23)CC1 [Example 81, 4-(2-Cyclopropylmethoxy-4-fluoro-phenyl)-5H-pyrrolo[3,2-d]pyrimidine-7-carboxylic acid (1-acetyl-piperidin-4-yl)-amide]",1.48 nM
28,"CCC(=O)N1CCC(NC(=O)c2c[nH]c3c(-c4ccc(F)cc4OCC4CC4)ncnc23)CC1 [Example 82, 4-(2-Cyclopropylmethoxy-4-fluoro-phenyl)-5H-pyrrolo[3,2-d]pyrimidine-7-carboxylic acid (1-propionyl-piperidin-4-yl)-amide]",1.1 nM
